Assay results reported in US6906068B1, “Substituted polycyclic aryl and heteroaryl 1,2,4 - triazinones useful as anticoagulants” (Pharmacia Corporation, priority 1999, dated 2005).

Key:
Format in all cases: biochemical
human thrombin = human thrombin (Homo sapiens, UniProt P00734); experiment: Thrombin Assay; conditions: @ 30 uM
Experimental: 0.28 nM human thrombin and 0.06 mM H-D-Phenylalanyl-L-pipecolyl-L-arginine-p-nitroaniline dibydrochloride are added to a 96-well assay plate containing either inhibitor or buffer (50 mM Tris-HCl, pH 8.0, 100 mM NaCl, 0.1% BSA). The reaction, in a final volume of 100 ul is measured immediately at 405 nm to determine background absorbance. The plate is incubated at room temperature for 60 min, at which time the rate of hydrolysis of the substrate is measured by monitoring the reaction at 405 nm for the release of p-nitroaniline. Percent inhibition of thrombin activity is calculated from OD405 nm value from the experimental and control sample.

human factor Xa = biological target: T1, human factor Xa (Homo sapiens, UniProt P00742); experiment: Xa Assay; conditions: @ 30 uM
T1 construct: purchased Enzyme Research Laboratories, South Bend Ind
Experimental: 0.3 nM human factor Xa and 0.15 mM N-α-Benzyloxycarbonyl-D-arginyl-L-glycyl-L-arginine-p-nitroaniline-dihydrochloride (S-2765) are added to a 96-well assay plate containing either inhibitor or buffer (50 mM Tris-HCl, pH 8.0, 100 mM NaCl, 0.1% BSA). The reaction, in a final volume of 100 ul is measured immediately at 405 nm to determine background absorbance. The plate is incubated at room temperature for 60 min, at which time the rate of hydrolysis of the substrate is measured by monitoring the ieaction at 405 nm for the release of p-nitroaniline. Percent inhibition of Xa activity is calculated from OD405 nm value from the experimental and control sample.
(§1) Recombinant soluble TF, consisting of amino acids 1-219 of the mature protein sequence was expressed in E. coli and purified using a Mono Q Sepharose FPLC. Recombinant human VIIa was purchased from American Diagnostica, Greenwich Conn. and chromogenic substrate N-Methylsulfonyl-D-phe-gly-arg-p-nitroaniline was prepared by American Peptide Company, Inc., Sunnyvale, Calif. Factor Xa was obtained from Enzyme Research Laboratories, South Bend Ind., thrombin from Calbiochem, La Jolla, Calif., and trypsin and L-BAPNA from Sigma, St. Louis Mo. The chromogenic substrates S-2765 and S-2238 were purchased from Chromog nix, Sweden.

[1] = biological target: T2, TF-VIIa (recombinant soluble tissue factor and recombinant human factor VIIa) (Homo sapiens, UniProt P08709); experiment: TF-VIIa Assay
T2 construct: conversion of coagulation factor VII to VIIa by Xa; purchased American Diagnostica, Greenwich Conn; host or cells: factor VIIa purchased; soluble TF made in house in E. coli
Experimental: In this assy 100 nM recombinant soluble tissue factor and 2 nM recombinant human factor VIIa are added to a 96-well assay plate containing 0.4 mM of the substrate, N-Methylsulfonyl-D-phe-gly-arg-p-nitroaniline and either inhibitor or buffer (5 mM CaCl2, 50 mM Tris-HCl, pH 8.0, 100 mM NaCl, 0.1% BSA). The reaction, in a final volume of 100 ul is measured immediately at 405 nm to determine background absorbance. The plate is incubated at room temperature for 60 min, at which time the rate of hydrolysis of the substrate is measured by monitoring the reaction at 405 nm for the release of p-nitroaniline. Percent inhibition of TF-VIIa activity is calculated from OD405 nm value from the experimental and control sample.
as §1

[2] = biological target: T3, trypsin, type IX from porcine pancreas (Sus scrofa, UniProt P00761); experiment: Trypsin Assay; conditions: read-out: Trpysin II IC50
T3 construct: purchased Sigma, St. Louis Mo. type IX; host or cells: porcine pancreas
Experimental: 5 ug/ml trypsin, type IX from porcine pancreas and 0.375 mM N-α-Benzoyl-L-arginine-p-nitroanilide (L-BAPNA) are added to a 96-well assay plate containing either inhibitor or buffer (50 mM Tris-HCl, pH 8.0, 100 mM NaCl, 0.1% BSA). The reactions, in a final volume of 100 ul are measured immediately at 405 nm to determine background absorbance. The plate is incubated at room temperature for 60 min, at which time the rate of hydrolysis of the substrate is measured by monitoring the reaction at 405 nm for the release of p-nitroaniline. Percent inhibition of trypsin activity is calculated from OD405 nm value from the experimental and control sample.
as §1

T1 sequence (P00742 235-488 limits assumed): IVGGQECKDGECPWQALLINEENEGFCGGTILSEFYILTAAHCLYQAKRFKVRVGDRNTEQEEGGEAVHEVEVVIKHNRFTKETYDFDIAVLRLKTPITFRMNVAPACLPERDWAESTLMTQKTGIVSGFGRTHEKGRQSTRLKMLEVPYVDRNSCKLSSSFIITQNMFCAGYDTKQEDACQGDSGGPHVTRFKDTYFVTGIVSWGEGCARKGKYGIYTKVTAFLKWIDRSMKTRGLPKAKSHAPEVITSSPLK
T1 sequence (P00742 41-179 partner limits assumed): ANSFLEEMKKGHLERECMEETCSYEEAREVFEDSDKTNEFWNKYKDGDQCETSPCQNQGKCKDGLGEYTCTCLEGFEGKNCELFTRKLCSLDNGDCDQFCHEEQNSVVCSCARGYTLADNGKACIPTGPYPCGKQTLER
T2 sequence (P08709 213-466 limits assumed): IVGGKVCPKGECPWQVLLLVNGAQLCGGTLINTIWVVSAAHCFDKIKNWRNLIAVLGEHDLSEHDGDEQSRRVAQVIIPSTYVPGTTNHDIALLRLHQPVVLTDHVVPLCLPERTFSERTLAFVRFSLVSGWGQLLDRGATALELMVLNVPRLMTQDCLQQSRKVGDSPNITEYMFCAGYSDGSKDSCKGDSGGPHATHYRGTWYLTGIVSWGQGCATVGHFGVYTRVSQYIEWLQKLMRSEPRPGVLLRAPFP
T2 sequence (P08709 61-212 partner limits assumed): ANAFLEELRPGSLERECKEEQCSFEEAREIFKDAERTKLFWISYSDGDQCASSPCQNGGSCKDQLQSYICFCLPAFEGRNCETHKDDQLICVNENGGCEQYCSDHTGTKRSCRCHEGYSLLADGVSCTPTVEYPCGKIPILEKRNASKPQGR
T2 sequence (P13726 33-251 partner limits assumed): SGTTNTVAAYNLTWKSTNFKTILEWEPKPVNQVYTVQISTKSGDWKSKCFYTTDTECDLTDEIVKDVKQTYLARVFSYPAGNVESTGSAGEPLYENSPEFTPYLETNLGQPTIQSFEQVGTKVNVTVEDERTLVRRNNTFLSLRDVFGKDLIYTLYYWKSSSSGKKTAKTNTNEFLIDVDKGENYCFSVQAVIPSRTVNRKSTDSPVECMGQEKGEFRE
T3 sequence (P00761 9-231): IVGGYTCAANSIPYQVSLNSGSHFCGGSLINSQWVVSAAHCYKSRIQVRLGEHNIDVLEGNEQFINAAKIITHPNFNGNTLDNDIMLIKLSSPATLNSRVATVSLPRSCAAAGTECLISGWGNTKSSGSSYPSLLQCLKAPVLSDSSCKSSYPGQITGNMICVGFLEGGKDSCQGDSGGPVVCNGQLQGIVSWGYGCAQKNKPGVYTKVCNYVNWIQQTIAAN

Structure (SMILES)	Thrombin II percent inhibition (human thrombin)	Factor Xa percent inhibition (human factor Xa)	IC50 [1]	IC50 [2]
N=C(N)c1ccc(CNC(=O)Cn2c(-c3cccc(N)c3)ncc(NC3CCC3)c2=O)cc1 [Example 8]	42% @ 30 uM	15% @ 30 uM		
N=C(N)c1cccc(CNC(=O)Cn2c(-c3ccccc3)ncc(NS(=O)(=O)Cc3ccccc3)c2=O)c1 [Example 2]			> 30 µM	> 30 µM
CC(C)Nc1cnc(-c2cccnc2)n(CC(=O)NCc2ccc(C(=N)N)cc2)c1=O [Example 7]		33% @ 30 uM		
CC(C)Nc1cnc(-c2cccc(N)c2)n(CC(=O)NCc2ccc(C(=N)N)cc2)c1=O [Example 6]	43% @ 30 um	33% @ 30 uM		
